Test results as given in US8569336B2, “Compounds for the treatment of inflammatory disorders” (priority 2008, dated 2013).

Target: T1, purified catalytic domain of recombinant human TACE (rhTACEc) (Homo sapiens, UniProt P78536, N452Q/S266A)
T1 construct: 6xHis (C); made in house; host or cells: baculovirus/Hi5 insect cells
Assay: TACE kinetic assay: cleavage of internally quenched peptide substrate TNF-FRET 2 (Ki)
Format: biochemical
Details: Ki, TNF-FRET 2 substrate

T1 sequence (P78536 215-477 S266A/N452Q): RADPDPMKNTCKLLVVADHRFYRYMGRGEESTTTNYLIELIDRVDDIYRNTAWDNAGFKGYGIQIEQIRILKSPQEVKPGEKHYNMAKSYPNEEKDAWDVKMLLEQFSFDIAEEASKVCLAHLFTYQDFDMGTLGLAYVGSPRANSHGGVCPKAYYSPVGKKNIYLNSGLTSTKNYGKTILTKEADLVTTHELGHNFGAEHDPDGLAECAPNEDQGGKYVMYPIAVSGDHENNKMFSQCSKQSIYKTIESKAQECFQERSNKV

Structure (SMILES) | Ki [nM]
CCNC(=O)Nc1ccc2oc([C@]3(CN4Cc5ccc(OC)cc5C4=O)NC(=O)NC3=O)cc2c1 [Compound 2229] | 0.388
COc1ccc2c(c1)C(=O)N(C[C@@]1(c3cc4nc(N(c5cccnc5)C5CCNCC5)ccc4o3)NC(=O)NC1=O)C2 [Compound 2145] | 0.547
COc1ccc2c(c1)C(=O)N(C[C@@]1(c3cc4nc(N)ccc4o3)NC(=O)NC1=O)C2 [Compound 2314] | 0.511
COc1ccc2c(c1)C(=O)N(C[C@@]1(c3cc4nc(-n5cccn5)ccc4o3)NC(=O)NC1=O)C2 [Compound 2165] | 0.405
COc1ccc2c(c1)C(=O)N(C[C@@]1(c3cc4cnc(N5CCNC5=O)cc4o3)NC(=O)NC1=O)C2 [Compound 2252] | 1.79
COc1ccc2c(c1)C(=O)N(C[C@@]1(c3cn4cccnc4n3)NC(=O)NC1=O)C2 [Compound 750] | 1.91
COc1ccc2c(c1)C(=O)N(C[C@@]1(c3cc4nc(N5CCN(C)CC5)ccc4o3)NC(=O)NC1=O)C2 [Compound 2108] | 0.613
COc1ccc2c(c1)C(=O)N(C[C@@]1(c3cc4nc(-c5ccc(N)nc5)ccc4o3)NC(=O)NC1=O)C2 [Compound 2102] | 0.328
COc1ccc2c(c1)C(=O)N(C[C@@]1(c3cc4nc(Nc5onc(C)c5C)ccc4o3)NC(=O)NC1=O)C2 [Compound 2132] | 0.593
COc1ccc2c(c1)C(=O)N(C[C@@]1(c3cc4nc(N)ccc4o3)NC(=O)NC1=O)C2 [Compound 1936] | 0.51
COc1ccc2c(c1F)C(=O)N(C[C@@]1(c3cc4cc(F)cnc4o3)NC(=O)NC1=O)C2 [Compound 2277] | 0.505
COc1ccc2c(c1)C(=O)N(C[C@@]1(c3cc4cnc(-c5ccncc5)cc4o3)NC(=O)NC1=O)C2 [Compound 2231] | 0.54

Same assay, conditions: TNF-FRET 2 substrate, read-out: Ki

Ki [nM] | Structure (SMILES)
1.25 | COc1ccc2c(c1F)C(=O)N(C[C@@]1(c3cc4nc(C)c(N5CCC5=O)cc4o3)NC(=O)NC1=O)C2 [Compound 1922]
1.31 | COc1ccc2c(c1)C(=O)N(C[C@@]1(c3cc4cc(NC(C)=O)cnc4o3)NC(=O)NC1=O)C2 [Compound 2295]
0.276 | COc1ccc2c(c1)C(=O)N(C[C@@]1(c3cc4nc(N5CC[C@@H](O)C5)ccc4o3)NC(=O)NC1=O)C2 [Compound 2166]
0.758 | COc1ccc2c(c1F)C(=O)N(C[C@@]1(c3cc4cc(C5(C)NC(=O)NC5=O)cnc4o3)NC(=O)NC1=O)C2 (stereo partly drawn) [Compound 504]
7.71 | COc1ccc2c(c1)C(=O)N(C[C@@]1(c3cc4c(o3)CCN(C)C4)NC(=O)NC1=O)C2 [Compound 2263]
0.58 | COc1ccc2c(c1)C(=O)N(C[C@@]1(c3cc4cc(C(=NO)N5CCN(C6CC6)CC5)ccc4o3)NC(=O)NC1=O)C2 [Compound 2455]
0.69 | COc1ccc2c(c1F)C(=O)N(C[C@@]1(c3cc4cc5c(c(F)c4o3)C(=O)N(C)C5)NC(=O)NC1=O)C2 [Compound 2502]
0.875 | COc1ccc2c(c1)C(=O)N(C[C@@]1(c3cc4nc(N5CCN(CCN(C)C)CC5)ccc4o3)NC(=O)NC1=O)C2 [Compound 2142]
0.77 | CCC1(c2cc(F)c3oc([C@]4(CN5Cc6ccc(OC)c(F)c6C5=O)NC(=O)NC4=O)cc3c2)NC(=O)NC1=O (stereo partly drawn) [Compound 1305]
2.79 | COc1ccc2c(c1F)C(=O)N(C[C@@]1(c3cc4nc(N5CCC(OC)(OC)CC5)ccc4o3)NC(=O)NC1=O)C2 [Compound 1715]
0.417 | COc1ccc2c(c1)C(=O)N(C[C@@]1(c3cc4c(o3)CN(C)CC4)NC(=O)NC1=O)C2 [Compound 2264]

System: TNF-α production from human whole blood
Assay: Inhibition of TNF-α production from human whole blood (hWBA), LPS stimulated, ELISA
Format: cell-based
Details: Homo sapiens, 3.5 h, human whole blood diluted 1:1, LPS stimulated, 3.5 h, TNF-α by ELISA; read-out: hWBA (IC50)

Structure (SMILES) | IC50 [nM]
CCNC(=O)Nc1ccc2oc([C@]3(CN4Cc5ccc(OC)cc5C4=O)NC(=O)NC3=O)cc2c1 [Compound 2229] | 457
COc1ccc2c(c1)C(=O)N(C[C@@]1(c3cc4nc(N(c5cccnc5)C5CCNCC5)ccc4o3)NC(=O)NC1=O)C2 [Compound 2145] | 174
COc1ccc2c(c1)C(=O)N(C[C@@]1(c3cc4nc(N5CC[C@@H](O)C5)ccc4o3)NC(=O)NC1=O)C2 [Compound 2166] | 141
COc1ccc2c(c1)C(=O)N(C[C@@]1(c3cc4c(o3)CCN(C)C4)NC(=O)NC1=O)C2 [Compound 2263] | ≥ 1000
COc1ccc2c(c1)C(=O)N(C[C@@]1(c3cc4nc(N5CCN(CCN(C)C)CC5)ccc4o3)NC(=O)NC1=O)C2 [Compound 2142] | 463
COc1ccc2c(c1)C(=O)N(C[C@@]1(c3cc4c(o3)CN(C)CC4)NC(=O)NC1=O)C2 [Compound 2264] | 1180
COc1ccc2c(c1)C(=O)N(C[C@@]1(c3cc4nc(-n5cccn5)ccc4o3)NC(=O)NC1=O)C2 [Compound 2165] | 1370
COc1ccc2c(c1)C(=O)N(C[C@@]1(c3cc4cnc(N5CCNC5=O)cc4o3)NC(=O)NC1=O)C2 [Compound 2252] | 206
COc1ccc2c(c1)C(=O)N(C[C@@]1(c3cc4nc(N5CCN(C)CC5)ccc4o3)NC(=O)NC1=O)C2 [Compound 2108] | 150
COc1ccc2c(c1)C(=O)N(C[C@@]1(c3cc4nc(-c5ccc(N)nc5)ccc4o3)NC(=O)NC1=O)C2 [Compound 2102] | 164
COc1ccc2c(c1)C(=O)N(C[C@@]1(c3cc4nc(Nc5onc(C)c5C)ccc4o3)NC(=O)NC1=O)C2 [Compound 2132] | 3130
COc1ccc2c(c1F)C(=O)N(C[C@@]1(c3cc4cc(F)cnc4o3)NC(=O)NC1=O)C2 [Compound 2277] | 499
COc1ccc2c(c1)C(=O)N(C[C@@]1(c3cc4cnc(-c5ccncc5)cc4o3)NC(=O)NC1=O)C2 [Compound 2231] | 1420

Same assay, conditions: Homo sapiens, LPS-stimulated human whole blood, TNF-α by ELISA; read-out: hWBA (IC50)

IC50 [nM] | Structure (SMILES)
281 | COc1ccc2c(c1F)C(=O)N(C[C@@]1(c3cc4nc(C)c(N5CCC5=O)cc4o3)NC(=O)NC1=O)C2 [Compound 1922]
239 | COc1ccc2c(c1F)C(=O)N(C[C@@]1(c3cc4cc(C5(C)NC(=O)NC5=O)cnc4o3)NC(=O)NC1=O)C2 (stereo partly drawn) [Compound 504]
239 | CCC1(c2cc(F)c3oc([C@]4(CN5Cc6ccc(OC)c(F)c6C5=O)NC(=O)NC4=O)cc3c2)NC(=O)NC1=O (stereo partly drawn) [Compound 1305]
480 | COc1ccc2c(c1F)C(=O)N(C[C@@]1(c3cc4nc(N5CCC(OC)(OC)CC5)ccc4o3)NC(=O)NC1=O)C2 [Compound 1715]

Structure (SMILES) | IC50 [nM]
COc1ccc2c(c1)C(=O)N(C[C@@]1(c3cn4cccnc4n3)NC(=O)NC1=O)C2 [Compound 750] | 705
COc1ccc2c(c1)C(=O)N(C[C@@]1(c3cc4nc(N)ccc4o3)NC(=O)NC1=O)C2 [Compound 1936] | 187

Same assay, conditions: Homo sapiens, human whole blood diluted 1:1, LPS stimulated, TNF-α by ELISA; read-out: hWBA (IC50)

IC50 [nM] | Structure (SMILES)
222 | COc1ccc2c(c1)C(=O)N(C[C@@]1(c3cc4cc(NC(C)=O)cnc4o3)NC(=O)NC1=O)C2 [Compound 2295]
885 | COc1ccc2c(c1)C(=O)N(C[C@@]1(c3cc4cc(C(=NO)N5CCN(C6CC6)CC5)ccc4o3)NC(=O)NC1=O)C2 [Compound 2455]
381 | COc1ccc2c(c1F)C(=O)N(C[C@@]1(c3cc4cc5c(c(F)c4o3)C(=O)N(C)C5)NC(=O)NC1=O)C2 [Compound 2502]

Structure (SMILES) | IC50 [nM]
COc1ccc2c(c1)C(=O)N(C[C@@]1(c3cc4nc(N)ccc4o3)NC(=O)NC1=O)C2 [Compound 2314] | 187

System: not listed separately
Assay: Area under the curve determinations of plasma levels in rats (rrAUC), oral 10 mg/kg
Format: in vivo
Details: blood collected 0.5-6 h post-dosing

Structure (SMILES) | RR AUC (rapid rat AUC, rrAUC) [nM·h]
COc1ccc2c(c1)C(=O)N(C[C@@]1(c3cc4nc(N)ccc4o3)NC(=O)NC1=O)C2 [Compound 2314] | 424

Same assay, conditions: rat, plasma 0.5-6 h, read-out: RR AUC (rapid rat AUC, rrAUC)

AUC [nM·h] | Structure (SMILES)
88 | COc1ccc2c(c1F)C(=O)N(C[C@@]1(c3cc4nc(C)c(N5CCC5=O)cc4o3)NC(=O)NC1=O)C2 [Compound 1922]
3660 | COc1ccc2c(c1F)C(=O)N(C[C@@]1(c3cc4cc(C5(C)NC(=O)NC5=O)cnc4o3)NC(=O)NC1=O)C2 (stereo partly drawn) [Compound 504]
1870 | CCC1(c2cc(F)c3oc([C@]4(CN5Cc6ccc(OC)c(F)c6C5=O)NC(=O)NC4=O)cc3c2)NC(=O)NC1=O (stereo partly drawn) [Compound 1305]
199 | COc1ccc2c(c1F)C(=O)N(C[C@@]1(c3cc4nc(N5CCC(OC)(OC)CC5)ccc4o3)NC(=O)NC1=O)C2 [Compound 1715]

Structure (SMILES) | AUC [nM·h]
COc1ccc2c(c1)C(=O)N(C[C@@]1(c3cn4cccnc4n3)NC(=O)NC1=O)C2 [Compound 750] | 320
COc1ccc2c(c1)C(=O)N(C[C@@]1(c3cc4nc(N)ccc4o3)NC(=O)NC1=O)C2 [Compound 1936] | 424

Same assay, conditions: rat, plasma 0.5-6 h post-dosing, read-out: RR AUC (rapid rat AUC, rrAUC)

Structure (SMILES) | AUC [nM·h]
CCNC(=O)Nc1ccc2oc([C@]3(CN4Cc5ccc(OC)cc5C4=O)NC(=O)NC3=O)cc2c1 [Compound 2229] | 158
COc1ccc2c(c1)C(=O)N(C[C@@]1(c3cc4nc(N(c5cccnc5)C5CCNCC5)ccc4o3)NC(=O)NC1=O)C2 [Compound 2145] | 86
COc1ccc2c(c1)C(=O)N(C[C@@]1(c3cc4nc(N5CC[C@@H](O)C5)ccc4o3)NC(=O)NC1=O)C2 [Compound 2166] | 600
COc1ccc2c(c1)C(=O)N(C[C@@]1(c3cc4c(o3)CCN(C)C4)NC(=O)NC1=O)C2 [Compound 2263] | 240
COc1ccc2c(c1)C(=O)N(C[C@@]1(c3cc4nc(N5CCN(CCN(C)C)CC5)ccc4o3)NC(=O)NC1=O)C2 [Compound 2142] | 60
COc1ccc2c(c1)C(=O)N(C[C@@]1(c3cc4c(o3)CN(C)CC4)NC(=O)NC1=O)C2 [Compound 2264] | 623
COc1ccc2c(c1)C(=O)N(C[C@@]1(c3cc4nc(-n5cccn5)ccc4o3)NC(=O)NC1=O)C2 [Compound 2165] | 21000
COc1ccc2c(c1)C(=O)N(C[C@@]1(c3cc4cnc(N5CCNC5=O)cc4o3)NC(=O)NC1=O)C2 [Compound 2252] | 1180
COc1ccc2c(c1)C(=O)N(C[C@@]1(c3cc4nc(N5CCN(C)CC5)ccc4o3)NC(=O)NC1=O)C2 [Compound 2108] | 430
COc1ccc2c(c1)C(=O)N(C[C@@]1(c3cc4nc(-c5ccc(N)nc5)ccc4o3)NC(=O)NC1=O)C2 [Compound 2102] | 92
COc1ccc2c(c1)C(=O)N(C[C@@]1(c3cc4nc(Nc5onc(C)c5C)ccc4o3)NC(=O)NC1=O)C2 [Compound 2132] | 145
COc1ccc2c(c1F)C(=O)N(C[C@@]1(c3cc4cc(F)cnc4o3)NC(=O)NC1=O)C2 [Compound 2277] | 26200
COc1ccc2c(c1)C(=O)N(C[C@@]1(c3cc4cnc(-c5ccncc5)cc4o3)NC(=O)NC1=O)C2 [Compound 2231] | 2750

Same assay, conditions: rat, plasma, blood collected 0.5-6 h post-dosing, read-out: RR AUC (rapid rat AUC, rrAUC)

AUC [nM·h] | Structure (SMILES)
44 | COc1ccc2c(c1)C(=O)N(C[C@@]1(c3cc4cc(NC(C)=O)cnc4o3)NC(=O)NC1=O)C2 [Compound 2295]
13 | COc1ccc2c(c1)C(=O)N(C[C@@]1(c3cc4cc(C(=NO)N5CCN(C6CC6)CC5)ccc4o3)NC(=O)NC1=O)C2 [Compound 2455]
3120 | COc1ccc2c(c1F)C(=O)N(C[C@@]1(c3cc4cc5c(c(F)c4o3)C(=O)N(C)C5)NC(=O)NC1=O)C2 [Compound 2502]
